The source of these data is patent publication US9108926B2, “Disubstituted 5-fluoro-pyrimidines” (Bayer Intellectual Property GmbH, priority 2011, dated 2015).

For data set [1], the system named is Caco-2 cells. Kind of data set: Proliferation assay, Caco-2. It is filed as cell-based. As to conditions: Homo sapiens, 96 h; Caco-2, 4 days, crystal violet; read-out: Inhibition of Caco-2 cell proliferation IC50. On the procedure:
(§1) After 24 hours, the cells of one plate (zero-point plate) were stained with crystal violet (see below), while the medium of the other plates was replaced by fresh culture medium (200 μl), to which the test substances were added in various concentrations (0 μM, as well as in the range of 0.001-10 μM; the final concentration of the solvent dimethyl sulfoxide was 0.5%). The cells were incubated for 4 days in the presence of test substances. Cell proliferation was determined by staining the cells with crystal violet: the cells were fixed by adding 20 μl/measuring point of an 11% glutaric aldehyde solution for 15 minutes at room temperature. After three washing cycles of the fixed cells with water, the plates were dried at room temperature. The cells were stained by adding 100 μl/measuring point of a 0.1% crystal violet solution (pH 3.0). After three washing cycles of the stained cells with water, the plates were dried at room temperature. The dye was dissolved by adding 100 μl/measuring point of a 10% acetic acid solution. […] The change of cell number, in percent, was calculated by normalization of the measured values to the extinction values of the zero-point plate (=0%) and the extinction of the untreated (0 μm) cells (=100%).

A short description of data set [2]: Caco-2 permeation assay. It is filed as in vitro ADME. To be noted: human, pH 7.2, Caco-2, test compound 2 μM; for Papp A→B at 2 h, 2 μM: apical to basolateral, read-out: Papp A-B (Mari); for Papp B→A at 2 h, 2 μM: basolateral to apical, read-out: Papp B-A (Mari). On the procedure:
4. Caco-2 Permeation Assay:
Caco-2 cells (purchased from DSMZ Braunschweig, Germany) were seeded at a density of 4.5×10^4 cells per well on 24 well insert plates, 0.4 μm pore size, and grown for 15 days in DMEM medium supplemented with 10% fetal bovine serum, 1% GlutaMAX (100×, GIBCO), 100 U/mL penicillin, 100 μg/mL streptomycin (GIBCO) and 1% non essential amino acids (100×). Cells were maintained at 37° C. in a humified 5% CO2 atmosphere. Medium was changed every 2-3 day. Before running the permeation assay, the culture medium was replaced by a FCS-free hepes-carbonate transport buffer (pH 7.2). For assessment of monolayer integrity the transepithelial electrical resistance (TEER) was measured. Test compounds were predissolved in DMSO and added either to the apical or basolateral compartment in final concentration of 2 μM in transport buffer. Before and after 2 h incubation at 37° C. samples were taken from both compartments. Analysis of compound content was done after precipitation with methanol by LC/MS/MS analysis. Permeability (Papp) was calculated in the apical to basolateral (A→B) and basolateral to apical (B→A) directions. […] The efflux ratio basolateral (B) to apical (A) was calculated by dividing the Papp B−A by the Papp A−B. In addition the compound recovery was calculated. The following reference compounds were used for the classification of the permeability class: Antipyrine, Pyrazosin, Verapamil, Fluvastatin, Cimetidine, Ranitidine, Atenolol, Sulfasalazine.
In general terms: Caco-2 monolayers are a common model of the intestinal barrier.

Data set [3] relates to HeLa cells. Kind of data set: Proliferation assay, HeLa. As to conditions: Homo sapiens, 96 h, 4 days, crystal violet, read-out: Inhibition of HeLa cell proliferation IC50. The class given is cell-based. On the procedure:
as §1

Data set [4] relates to A2780 cells. The experiment in a line: Proliferation assay, A2780. The class given is cell-based. To be noted: Homo sapiens, 96 h; A2780, 4 days, crystal violet; read-out: Inhibition of A2780 cell proliferation IC50. On the procedure:
Cultivated tumour cells (HeLa, human cervical tumour cells, ATCC CCL-2; NCI-H460, human non-small cell lung carcinoma cells, ATCC HTB-177; A2780, human ovarian carcinoma cells, ECACC #93112519; DU 145, hormone-independent human prostate carcinoma cells, ATCC HTB-81; HeLa-MaTu-ADR, multidrug-resistant human cervical carcinoma cells, EPO-GmbH Berlin; Caco-2, human colorectal carcinoma cells, ATCC HTB-37; B16F10, mouse melanoma cells, ATCC CRL-6475) were plated at a density of 5,000 cells/well (DU145, HeLa-MaTu-ADR), 3,000 cells/well (NCI-H460, HeLa), 2,500 cells/well (A2780), 1,500 cells/well (Caco-2), or 1,000 cells/well (B16F10) in a 96-well multititer plate in 200 μL of their respective growth medium supplemented 10% fetal calf serum. […] Cell proliferation was determined by staining the cells with crystal violet: the cells were fixed by adding 20 μl/measuring point of an 11% glutaric aldehyde solution for 15 minutes at room temperature. […] The extinction was determined by photometry at a wavelength of 595 nm. The change of cell number, in percent, was calculated by normalization of the measured values to the extinction values of the zero-point plate (=0%) and the extinction of the untreated (0 μm) cells (=100%).

For data set [5], the system named is NCI-H460 cells. Kind of data set: Proliferation assay, NCI-H460. To be noted: Homo sapiens, 96 h; NCI-H460, 4 days, crystal violet; read-out: Inhibition of NCI-H460 cell proliferation IC50. It is filed as cell-based. As to the method: as §1
The test system of data set [6] is DU145 cells. Kind of data set: Proliferation assay, DU145. The class given is cell-based. As to conditions: Homo sapiens, DU-145, 96 h; DU145, 4 days, crystal violet; read-out: Inhibition of DU145 cell proliferation IC50. As to the method:
as §1

Data set [7] addresses CDK2/CycE (Homo sapiens, UniProt P24941). Kind of data set: CDK2/CycE kinase assay (TR-FRET, Method 2). In general terms: TR-FRET usually uses a lanthanide donor and a delayed reading to cut background.
Description: CDK2/CycE-inhibitory activity of compounds of the present invention was quantified employing the CDK2/CycE TR-FRET assay as described in the following paragraphs:
Recombinant fusion proteins of GST and human CDK2 and of GST and human CycE, expressed in insect cells (Sf9) and purified by Glutathion-Sepharose affinity chromatography, were purchased from ProQinase GmbH (Freiburg, Germany). As substrate for the kinase reaction biotinylated peptide biotin-Ttds-[sequence] (C-terminus in amid form) was used which can be purchased e.g. form the company JERINI Peptide Technologies (Berlin, Germany).
For the assay 50 nl of a 100 fold concentrated solution of the test compound in DMSO was pipetted into a black low volume 384 well microtiter plate (Greiner Bio-One, Frickenhausen, Germany), 2 μl of a solution of CDK2/CycE in aqueous assay buffer [50 mM Tris/HCl pH 8.0, 10 mM MgCl2, 1.0 mM dithiothreitol, 0.1 mM sodium ortho-vanadate, 0.01% (v/v) Nonidet-P40 (Sigma)] were added and the mixture was incubated for 15 min at 22° C. to allow pre-binding of the test compounds to the enzyme before the start of the kinase reaction. Then the kinase reaction was started by the addition of 3 μl of a solution of adenosine-tri-phosphate (ATP, 16.7 μM=>final conc. in the 5 μl assay volume is 10 μM) and substrate (1.25 μM=>final conc. in the 5 μl assay volume is 0.75 μM) in assay buffer and the resulting mixture was incubated for a reaction time of 25 min at 22° C. The concentration of CDK2/CycE was adjusted depending of the activity of the enzyme lot and was chosen appropriate to have the assay in the linear range, typical concentrations were in the range of 130 ng/mL. The reaction was stopped by the addition of 5 μl of a solution of TR-FRET detection reagents (0.2 μM streptavidine-XL665 [Cisbio Bioassays, Codolet, France] and 1 nM anti-RB(pSer807/pSer811)-antibody from BD Pharmingen [#558389] and 1.2 nM LANCE EU-W1024 labeled anti-mouse IgG antibody [Perkin-Elmer, product no. AD0077]) in an aqueous EDTA-solution (100 mM EDTA, 0.2% (w/v) bovine serum albumin in 100 mM HEPES/NaOH pH 7.0).
The resulting mixture was incubated 1 h at 22° C. to allow the formation of complex between the phosphorylated biotinylated peptide and the detection reagents. Subsequently the amount of phosphorylated substrate was evaluated by measurement of the resonance energy transfer from the Eu-chelate to the streptavidine-XL. Therefore, the fluorescence emissions at 620 nm and 665 nm after excitation at 350 nm was measured in a TR-FRET reader, e.g. a Rubystar (BMG Labtechnologies, Offenburg, Germany) or a Viewlux (Perkin-Elmer). The ratio of the emissions at 665 nm and at 622 nm was taken as the measure for the amount of phosphorylated substrate.
For data set [8], the system named is HeLa-MaTu-ADR cells. Kind of data set: Proliferation assay, HeLa-MaTu-ADR. The class given is cell-based. As to conditions: Homo sapiens, 96 h; HeLa-MaTu-ADR, 4 days, crystal violet; read-out: Inhibition of HeLa-MaTu-ADR cell proliferation IC50. On the procedure: as §1
The subject of data set [9] is B16F10 cells. The experiment in a line: Proliferation assay, B16F10. The class given is cell-based. To be noted: Mus musculus, B16-F10, 96 h; B16F10, 4 days, crystal violet; read-out: Inhibition of B16F10 cell proliferation IC50. As to the method:
as §1

A word on the Papp A→B: it is the apparent permeability from the apical to the basolateral side of a cell layer. What is called Papp B→A is how fast a substance crosses the layer from the basolateral side.

In the case of `COc1cc(F)ccc1-c1nc(Nc2cc(F)cc(CS(C)(=O)=O)c2)ncc1F` [Example 12, 5-Fluoro-4-(4-fluoro-2-methoxyphenyl)-N-{3-fluoro-5-[(methylsulfonyl)methyl]phenyl}pyrimidin-2-amine], the IC50 in [1] came out at 380 nM; in data set [3] it was 110 nM; in data set [4] it was 110 nM; in [5], 360 nM; in data set [6], 310 nM; in data set [7] it was 200 nM. The results for the IC50 in data set [8] and in [9] were 120 nM and 360 nM, respectively. In addition, the Papp A→B at 2 h, 2 μM in data set [2] was 9.7 ×10⁻⁶ cm/s. Besides, the Papp B→A at 2 h, 2 μM in [2] was 3.1 ×10⁻⁶ cm/s.
`COc1cc(F)ccc1-c1nc(Nc2cccc(CS(C)(=O)=O)c2)ncc1F` [Example 1, 5-Fluoro-4-(4-fluoro-2-methoxyphenyl)-N-{3 [(methylsulfonyl)methyl]phenyl}pyrimidin-2-amine]: the IC50 was found to be 260 nM in data set [1]; 290 nM in data set [3]; 330 nM in data set [5]; 290 nM in data set [6]; 300 nM in [7]; 170 nM in [8]. Also, the IC50 in [9] was 310 nM. The Papp A→B at 2 h, 2 μM in data set [2] was 20.6 ×10⁻⁶ cm/s. Further, the Papp B→A at 2 h, 2 μM in data set [2] amounted to 8.5 ×10⁻⁶ cm/s.
